Laboratory results taken from ChEMBL document CHEMBL2203096, “Recent advances in hypoxia-inducible factor (HIF)-1 inhibitors” (Eur J Med Chem, 2012).
Blank lines part the entries; values can stand above or below the compound they belong to.

Legend:
[1] = Apparent permeability across human Caco2 cells at 20 uM; type: ADME, cell-based; conditions: Caco-2
[2] = Antitumor activity against human Hep3B cells xenografted in nude mouse assessed as reduction in tumor size at 10 to 30 mg/kg/day, ip for 2 weeks (reference value: 900 mm3); type: functional, Hep 3B2; conditions: route intraperitoneal
[3] = Metabolic stability in human Hepatocyte assessed as compound remaining at 1 umol/L after 2 hrs by RP-HPLC analysis; type: ADME, cell-based; conditions: hepatocytes, read-out: Stability
[4] = Metabolic stability in rat Hepatocyte assessed as compound remaining at 1 umol/L after 2 hrs by RP-HPLC analysis; type: ADME, cell-based; conditions: hepatocytes, read-out: Stability
[5] = Apparent permeability across human Caco2 cells at 5 uM; type: ADME, cell-based; conditions: Caco-2
[6] = tested on: Mus musculus; assay: Toxicity in human HCT116 cells xenografted mouse assessed as decrease in body weight at 30 mg/kg, iv; type: organism-based, HCT-116; design: dose 30 mg/kg, route intravenous; scale not given: the % may be the effect or the level left; conditions: in vivo
[7] = tested on: HCT-116; assay: Antitumor activity against human HCT116 cells xenografted in mouse assessed as inhibition of tumor growth at 30 mg/kg, iv; type: functional; conditions: read-out: TGI
[8] = tested on: MDA-MB-435; assay: Antitumor activity against human MDA-MB-435 cells xenografted in nude mouse assessed as inhibition of tumor growth at 20 to 50 mg/kg, qd for 5 weeks; type: functional; conditions: dose mg/kg 20-50
[9] = biological target: T1, Hypoxia-inducible factor 1-alpha (Homo sapiens, UniProt Q16665); assay: Inhibition of HIF-1alpha transcriptional co-activator p300 interaction
[10] = biological target: T1, Hypoxia-inducible factor 1-alpha; assay: Inhibition of HIF-1alpha-mediated VEGF expression in human Hep3b cells by luciferase reporter gene assay; type: cell-based
[11] = biological target: T1, Hypoxia-inducible factor 1-alpha; assay: Inhibition of HIF-1alpha-mediated VEGF secretion in human Hep3b cells by ELISA; type: cell-based
[12] = Antitumor activity against human […] cells xenografted in athymic nude mice assessed as reduction of tumor size at 20 mg/kg, qd; type: functional; design: scale not given: the % may be the effect or the level left
[13] = Apparent permeability across human Caco2 cells at 10 uM; type: ADME, cell-based; conditions: Caco-2
[14] = biological target: T1, Hypoxia-inducible factor 1-alpha; assay: Inhibition of HIF-1alpha in human LN229 cells under hypoxia condition by HRE-luciferase reporter gene assay; type: cell-based
[15] = tested on: Nucleic Acid; assay: Binding affinity to HIF-1 5'-CGTG-3' DNA sequence in human U251 cells assessed as inhibition of HRE-mediated reporter activation; type: cell-based; conditions: u-251
[16] = biological target: T1, Hypoxia-inducible factor 1-alpha; assay: Inhibition of HIF-1alpha in human HCT116 cells under hypoxia condition by HRE-luciferase reporter gene assay; type: cell-based, HCT-116

T1 sequence (Q16665 whole entry): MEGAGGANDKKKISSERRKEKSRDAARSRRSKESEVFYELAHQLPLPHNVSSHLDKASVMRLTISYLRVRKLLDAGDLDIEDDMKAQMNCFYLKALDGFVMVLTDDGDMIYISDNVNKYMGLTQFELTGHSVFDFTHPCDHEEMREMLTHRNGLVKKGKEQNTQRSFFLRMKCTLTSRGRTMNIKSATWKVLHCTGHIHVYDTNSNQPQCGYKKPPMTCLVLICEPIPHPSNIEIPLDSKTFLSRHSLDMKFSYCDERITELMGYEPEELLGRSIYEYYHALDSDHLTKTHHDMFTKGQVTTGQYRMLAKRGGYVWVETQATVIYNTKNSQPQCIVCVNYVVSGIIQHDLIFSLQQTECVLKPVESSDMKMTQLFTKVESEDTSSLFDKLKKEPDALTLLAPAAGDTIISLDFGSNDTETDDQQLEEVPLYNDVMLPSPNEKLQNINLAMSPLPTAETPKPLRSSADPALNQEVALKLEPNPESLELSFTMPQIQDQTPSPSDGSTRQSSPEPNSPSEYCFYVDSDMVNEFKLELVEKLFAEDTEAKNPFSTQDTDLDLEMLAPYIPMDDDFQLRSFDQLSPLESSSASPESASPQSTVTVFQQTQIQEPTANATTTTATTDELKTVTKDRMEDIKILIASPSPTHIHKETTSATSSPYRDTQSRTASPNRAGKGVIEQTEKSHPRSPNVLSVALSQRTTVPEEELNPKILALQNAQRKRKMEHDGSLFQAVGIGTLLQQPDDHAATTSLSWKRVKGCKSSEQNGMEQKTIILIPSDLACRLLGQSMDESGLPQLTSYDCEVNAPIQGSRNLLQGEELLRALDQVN

- Papp at 20 µM [1]: 0.6 ×10⁻⁶ cm/s
SMILES: CNC(=C[N+](=O)[O-])NCCSCc1ccc(CN(C)C)o1 [RANITIDINE]

SMILES: OCc1ccc(-c2nn(Cc3ccccc3)c3ccccc23)o1
- Activity [2]: 400 mm3

- remaining at 2 h, 1 µM [3]: > 65%
- remaining at 2 h, 1 µM [4]: > 65%
SMILES: COc1cc2c(cc1C(N)=O)CC[C@@H]1[C@@H]2CC[C@]2(C)CCC[C@@H]12

- Papp at 5 µM [5]: 22.9 ×10⁻⁶ cm/s
SMILES: O=C(COc1ccc(C23CC4CC(CC(C4)C2)C3)cc1)Nc1cc(C(=O)NCCCn2ccnc2)ccn1
- Activity [6]: 92.7%
- inhibition in vivo at 30 mg/kg [7]: 51.3%

SMILES: Cn1c(CO)ccc1-c1nn(Cc2ccccc2)c2ccccc12
- Activity [2]: 400 mm3

SMILES: COC(=O)c1ccc2[nH]c(COc3ccc(C45CC6CC(CC(C6)C4)C5)cc3)nc2c1
- TGI [8]: 58.6%

SMILES: CN1C(=O)[C@@]23C[C@]4([C@]56C[C@@]78SS[C@@](CO)(C(=O)N7[C@H]5Nc5ccccc56)N(C)C8=O)c5ccccc5N[C@@H]4N2C(=O)[C@]1(CO)SS3 [CHAETOCIN]
- IC50 [9]: 12500 nM
- IC50 [10]: 40 nM
- IC50 [11]: 100 nM

- remaining at 2 h, 1 µM [3]: > 65%
- remaining at 2 h, 1 µM [4]: > 65%
SMILES: COc1cc2c(cc1O)CC[C@@H]1[C@@H]2CC[C@]2(C)[C@@H](O)CC[C@@H]12 [2-METHOXYESTRADIOL]

SMILES: COC(=O)c1ccc(O)c(NC(=O)COc2ccc(C34CC5CC(CC(C5)C3)C4)cc2)c1
- Activity [12]: 53.6%

- Papp at 10 µM [13]: 27.2 ×10⁻⁶ cm/s
SMILES: COCCc1ccc(OCC(O)CNC(C)C)cc1 (centres undefined) [METOPROLOL]

- IC50 [14]: 7500 nM
SMILES: COc1c(C(C2CCCCC2)n2cnc3c(Cl)cccc32)ccc2c1C=CC(C)(C)O2 (centres undefined)

- EC50 [15]: 1.2 nM
SMILES: CS[C@H]1SC[C@H]2C(=O)N(C)[C@@H](C(C)C)C(=O)OC[C@@H](NC(=O)c3cnc4ccccc4n3)C(=O)N[C@@H](C)C(=O)N(C)[C@@H]1C(=O)N(C)[C@@H](C(C)C)C(=O)OC[C@@H](NC(=O)c1cnc3ccccc3n1)C(=O)N[C@@H](C)C(=O)N2C [ECHINOMYCIN]

- IC50 [16]: 3 nM
SMILES: Cc1ccc(Cn2nc(-c3nc4ccc(-c5ccc(Cl)cc5)cc4[nH]3)cc2C)cc1
